Values of other authors as cited in patent US9414584B2, “Stabilized hypohalous acid solutions” (PURICORE, INC., priority 2011, dated 2016).
Read-outs that look alike come from different tables or passages of the source.

Experiments:
E. coli [1] = test system: E. coli
E. coli [2] = details: 2.6 ppm; dilute bacterial suspensions; about 5 minutes
Escherichia coli = Escherichia coli exposed to hypochlorous acid

Row | Structure (SMILES) | time for 25 mg/mL solution to reach 20 mg/mL of free residual chlorine (20° C., Arrhenius calculation from studies at 50° C. and 70° C.) [days] | loss of titrable chlorine (in the first 6 months) | loss of titrable chlorine (within a year) | concentration required for 100% kill in 5 minutes (S. dysenteriae) [ppm] | concentration required for 100% kill in 5 minutes (E. coli [1]) [ppm] | concentration required for 100% kill in 5 minutes (A. aerogenes) [ppm] | growth inhibition of E. coli (E. coli [2]) [%] | time to lose viability (Escherichia coli) | concentration required for 100% kill in 5 minutes (S. typhosa) [ppm]
1 | OCl [sodium hypochlorite solution, sodium hypochlorite] | 166 | approximately 20% | up to 60% | – | – | – | – | – | –
2 | OCl [hypochlorous acid] | – | – | – | 0.05 | 0.03 | 0.08 | 100 | less than 100 ms | 0.06
